Source: patent publication US6573258B2, “Photodynamic porphyrin antimicrobial agents” (Frontier Scientific, Inc., priority 2000, dated 2003)

Experiments:
[1] = test system: E. coli cells; test: Growth inhibition after 5 min incubation with porphyrin and white-light irradiation; assay type: cell-based, Escherichia coli; conditions: for concentration photoinducing significant bacteriostatic and bactericidal action: both cell strains (S. aureus and E. coli)
Description: (§1) The abilities of various examples of the porphyrins of the instant invention to kill Gram-negative and Gram-positive bacteria were tested against that of T4MPyP. Each of the compounds was incubated with E. coli and S. aureus cells for 5 minutes, following which the samples were irradiated with white light for varying lengths of time.
(§2) Escherichia coli strain O4 (wild type), and methycillin-resistant Staphylococcus aureus, strain MRSA 110, were grown aerobically at 37° C. in brain heart infusion broth (BHI, Difco, Detroit, Mich.). The cells in the stationary phase of growth were harvested by centrifugation (2,000 g for 15 min) of the broth cultures, washed twice with 10 mM PBS at pH=7.4, containing 2.7 mM KCl and 0.14 M NaCl, and suspended in PBS at a density of 10^8-10^9 cells/ml (absorbance of about 0.7 at 650 nm). Aliquots of 5 ml of the cell suspension were incubated with 1 μM porphyrins for 5 min in the dark at room temperature. After incubation the suspensions were centrifuged and the cell pellets were collected immediately or washed with PBS and centrifuged again for one or three times.
(§3) The toxic effects of T4MPyP and its analogues on E. coli and S. aureus cells were evaluated by measuring the extent of growth inhibition (bacteriostatic effect) and reduction of survival (cytocidal/bacteriocidal effect) following treatment with porphyrin in the dark or upon light exposure.
(§4) In all cases, 5 ml of the cell suspension (10^8-10^9 cells/ml) were incubated for 5 min in the dark at room temperature with the selected photosensitizer at concentrations ranging between 0.5 and 10 μM. After dark-incubation, some of the cell samples were irradiated with white light (150 mW/cm^2). During irradiation, (up to 30 min) the cells were kept at 37° C. and magnetically stirred. The treated and untreated control cells were diluted with BHI and maintained at 37° C. while the absorbance of the suspension at 650 nm was monitored at predetermined time periods for determining growth curves. The percent of growth inhibition in the treated cells was calculated by the following equation: […]
(§5) where AX, and AC are the absorbances measured after 3 h incubation, respectively, for the treated and control cell suspensions, respectively, while A0 represents the initial absorbance and the AC is that of the control cell suspension after 5 hours incubation. Cell survival was determined by plating serially diluted aliquots of treated and untreated cells on brain heart agar and counting the number of colonies after 18-24 h incubation at 37° C.

[2] = test system: S. aureus cells; test: Dark toxicity of porphyrins on bacteria cells; assay type: cell-based, Staphylococcus aureus; conditions: 10 μM, 5 min incubation in the dark
Description: as §3, §4, §5

[3] = test system: E. coli cells; test: Dark toxicity of porphyrins on bacteria cells; assay type: cell-based, Escherichia coli; conditions: 10 μM, 5 min incubation in the dark
Description: as §3, §4, §5

[4] = test system: E. coli cells; test: Decrease of cell survival (colony counting) after white-light irradiation; assay type: cell-based, Escherichia coli; conditions: 1 μM porphyrin; for DECREASE OF SURVIVAL (log): 5 min dark incubation, 15 min white light (150 mW/cm^2)
Description: as §2, §3, §4, §5

[5] = Fluorescence quantum yields; assay type: physicochemical; conditions: for ΦF (PBS), fluorescence quantum yield: in PBS; for ΦF (SDS), fluorescence quantum yield: in aqueous 2% SDS
Description: Ground-state absorption spectra of the porphyrins (ca. 5 μM in phosphate buffered saline (PBS, pH=7.4) were recorded with a Lambda 5 Perkin-Elmer spectrophotometer. Fluorescence spectra, corrected for the instrumental response, were recorded with a Perkin-Elmer (model LS) or a Spex (Fluorolog F112) spectrofluorimeter. Fluorescence quantum yields ((IF) of the porphyrin derivatives in PBS and in water containing 2% sodium dodecylsulfate (a detergent, hereinafter “SDS”) were determined by measuring the area of the emission spectrum (600-800 nm range, excitation at 560 nm) and using tetra-n-propylporphycene in toluene as a reference (ΦF=0.38). Braslavsky et al, J. Photochem. Photobiol. B: Biol., 40:191-198 (1997). In all cases, the absorbance of the sample and the reference solution were kept below 0.1 at the excitation wavelength to minimize inner filter effects.

[6] = Triplet state properties by laser flash photolysis; assay type: physicochemical; conditions: phosphate-buffered solution; for φT, triplet quantum yield: ε920 estimated by total depletion method
Description: Laser flash photolysis experiments were carried out by use of the setup previously described in Gomer, et al., with excitation wavelengths of 355 and 420 nm. Gorner, et al., Photoinduced electron transfer between styrylanthracenes and electron donors and acceptors in acetonitrile, J. Chem. Soc. Faraday Trans., vol. 88, pp. 29-34 (1992).
The transient spectra of the porphyrins in buffer solutions were recorded upon laser flash photolysis excitation at 355 and 420 nm. […] The decay (growth) of the signal (bleaching) occurred according to first-order kinetics and led to a complete recovery of the ground state with a lifetime of 91 μs. […] This also allowed the triplet quantum yield (φT) to be determined (see Table 3), after calibration of the experimental setup by use of an optically-matched solution of benzophenone in acetonitrile.

[7] = Photosensitized photooxidation of NATA; conditions: 10 μM NATA; for ΦSDS × 10^3, quantum yield for photo-oxidation of NATA: aqueous 2% SDS; for ΦPBS × 10^3, quantum yield for photo-oxidation of NATA: phosphate buffered solution
Description: The photosensitizing activity of the various porphyrins was tested by measuring their efficiency in promoting the photooxidation of N-acetyl-L-tryptophanamide (NATA, Aldrich Chem. Co.) as a model biological substrate. Toward this aim, 10 μM NATA in PBS or in water containing 2% SDS was irradiated in the presence of 5 μM porphyrin. The irradiations were performed with 515±10 nm-light isolated by means of an interference filter (Balzers, Liechtenstein), while the solution (2 ml) was magnetically stirred in a quartz cuvette of 1-cm optical path and kept at 25° C. The photosensitized modification of NATA was followed by measuring the decrease in the intensity of its fluorescence emission spectrum (300-450 nm) upon excitation with 290 nm-light at various irradiation times. Plots of in F°/F (where F° and F represent the fluorescence intensity at time 0 and t, respectively) vs. the irradiation time allowed the first-order rate constants of the photo-process to be derived.
The intensity of the incident light was measured by using Aberchrome 999P in toluene as an actinometer. Heller, EPA Newslett., 29:49-60 (1987). This parameter was used to calculate the quantum yields of NATA photooxidation sensitized by the different porphyrins.

[8] = test system: S. aureus cells; test: Growth inhibition after 5 min incubation with porphyrin and white-light irradiation; assay type: cell-based, Staphylococcus aureus
Description: as §1, §2, §3
[…] After dark-incubation, some of the cell samples were irradiated with white light (150 mW/cm^2). During irradiation, (up to 30 min) the cells were kept at 37° C. and magnetically stirred. The treated and untreated control cells were diluted with BHI and maintained at 37° C. while the absorbance of the suspension at 650 nm was monitored at predetermined time periods for determining growth curves. The percent of growth inhibition in the treated cells was calculated by the following equation:
as §5

[9] = Fluorescence decay times (phase-shift method); assay type: physicochemical; conditions: ca. 5 μM, air-equilibrated buffer pH 7.4, λexc = 420 nm, λem > 600 nm; for A1, relative weight of fast component: dihydrochloride salt
Description: Fluorescence decay times of the porphyrin samples were measured by means of a Spex Fluorolog-τ2 spectrofluorimeter based on the phase-shift method. The frequency response curves (phase-shift and demodulation ratio vs. frequency) were globally analyzed.

[10] = 0.5 μM, incubated 5 min, white light 5 min
[11] = 0.5 μM, incubated 5 min, white light 10 min
[12] = Table 5: 0.5 μM, 5 min incubation, 5 min white light (150 mW/cm^2)
[13] = Table 5: 1 μM, 5 min incubation, 5 min white light (150 mW/cm^2)

Structure (SMILES)	inhibition of bacterial cell growth in the dark [2]	inhibition of bacterial cell growth in the dark [3]	DECREASE OF SURVIVAL (log) [4] [log]	ΦF (PBS), fluorescence quantum yield [5]	ΦF (SDS), fluorescence quantum yield [5]	λmax of transient spectrum [6] [nm]	λmin of transient spectrum [6] [nm]	φ×ε920 [6] [M⁻¹ cm⁻¹]	τ^N2, triplet lifetime [6] [μs]	τ^air, triplet lifetime [6] [μs]	φT, triplet quantum yield [6]	ΦSDS × 10^3, quantum yield for photo-oxidation of NATA [7]	ΦPBS × 10^3, quantum yield for photo-oxidation of NATA [7]	Growth inhibition (%) S. aureus [8, 10] [%]	Growth inhibition (%) S. aureus [8, 11] [%]	Growth inhibition (%) S. aureus [8, 12] [%]	A2, relative weight of slow component [9] [%]	τ1, fluorescence decay time of fast component [9] [ns]	τ2, fluorescence decay time of slow component [9] [ns]	A1, relative weight of fast component [9] [%]	further results
C[n+]1ccc(-c2c3nc(c(-c4cc[n+](C)cc4)c4ccc([nH]4)c(-c4cc[n+](Cc5ccccc5)cc4)c4nc(c(-c5cc[n+](C)cc5)c5ccc2[nH]5)C=C4)C=C3)cc1.Cl.Cl.[Cl-].[Cl-].[Cl-].[Cl-] [mono-benzyl, 5-(4-N-benzylpyridyl)-10,15,20-tris(4-N-methylpyridyl)-21H,23H-porphine tetrachloride dihydrochloride salt]																					Growth inhibition (%) E. coli ([1]; 10 μM, incubated 5 min, white light 5 min): 54.1%; Growth inhibition (%) E. coli ([1]; 10 μM, incubated 5 min, white light 10 min): 100%; photodynamic effectiveness relative to base porphyrin ([1]; same conditions as base porphyrin): about twice as effective as the base porphyrin
CCCCCCCCCCCCCCCCCC[n+]1ccc(-c2c3nc(c(-c4cc[n+](C)cc4)c4ccc([nH]4)c(-c4cc[n+](C)cc4)c4nc(c(-c5cc[n+](C)cc5)c5ccc2[nH]5)C=C4)C=C3)cc1.Cl.Cl.[Cl-].[Cl-].[Cl-].[Cl-] [Porphyrin C18, 5-(4-N-octadecylpyridyl)-10,15,20-tris(4-N-methylpyridyl)-21H,23H-porphine tetrachloride dihydrochloride salt]	complete inhibition	complete inhibition	−2.78 ± 0.62	0.022	0.024	470	420	2700	74	21	0.17	0.80 ± 0.04	0.14 ± 0.01	41.4	58.1	42	97	1.4	9.0	3	Growth inhibition (%) S. aureus ([8]; 0.1 μM, incubated 5 min, white light 5 min): 12.7%; Growth inhibition (%) S. aureus ([8]; 0.1 μM, incubated 5 min, white light 10 min): 20.2%; Growth inhibition (%) S. aureus [8, 13]: 59%; Growth inhibition (%) E. coli [1, 10]: 26%; Growth inhibition (%) E. coli [1, 11]: 56.6%; Growth inhibition (%) E. coli ([1]; 1 μM, incubated 5 min, white light 5 min): 57.9%; Growth inhibition (%) E. coli ([1]; 1 μM, incubated 5 min, white light 10 min): 95.7%; Growth inhibition (%) E. coli [1, 12]: 26%; Growth inhibition (%) E. coli [1, 13]: 58%; concentration photoinducing significant bacteriostatic and bactericidal action [1]: ten-fold lower concentration
CCCCCCCCCCCCCC[n+]1ccc(-c2c3nc(c(-c4cc[n+](C)cc4)c4ccc([nH]4)c(-c4cc[n+](C)cc4)c4nc(c(-c5cc[n+](C)cc5)c5ccc2[nH]5)C=C4)C=C3)cc1.Cl.Cl.[Cl-].[Cl-].[Cl-].[Cl-] [Porphyrin C14, 5-(4-N-tetradecylpyridyl)-10,15,20-tris(4-N-methylpyridyl)-21H,23H-porphine tetrachloride dihydrochloride salt]	complete inhibition	complete inhibition	−4.35 ± 0.45	0.019	0.022	480	425	9762	70	20	0.48	0.71 ± 0.03	0.66 ± 0.10	72.7	88.9	73	98	1.0	6.5	2	drop in survival of E. coli cells ([4]; 15 min irradiation): 4 log; Growth inhibition (%) E. coli [1, 10]: 81.8%; Growth inhibition (%) E. coli [1, 11]: 100%; Growth inhibition (%) E. coli [1, 12]: 82%; concentration photoinducing significant bacteriostatic and bactericidal action [1]: ten-fold lower concentration
